{"source": "patent US4207325A", "about": "“4-Substituted pyrazoles” (Bayer Aktiengesellschaft, priority 1975, dated 1980)", "tested_on": "venous thrombs (left jugular vein of rats)", "assay": "antithrombotic action in rats: thromb formation in the supercooled left jugular vein, thromb isolated and weighed 4 hours later", "assay_type": "in vivo", "settings": "10 mg/kg, administered orally", "experimental": "The left jugular vein of rats weighing 170 to 180 g was exposed under ether narcosis and supercooled to -12° C. for 2 minutes to stimulate thromb formation. The thromb was isolated from the vein 4 hours later, and was weighed. The test animals were given the test preparation in tragacanth mucilage immediately before supercooling the wall of the blood vessel. As a result, the protective antithrombotic activity was tested in the first 4 hours after stimulating thromb formation."}
{"smiles": "Cc1nn(C(C)c2ccc(Cl)c(Cl)c2)c(OC(=O)c2ccc(F)cc2)c1-c1ccccc1", "note": "(stereo not drawn) [Example 1, 5-(4-Fluorobenzoyloxy)-3-methyl-phenyl-1-(α-methyl-3,4-dichlorobenzyl)-pyrazole]", "values": [{"measurement": "Inhibition in % (reduction of thromb size)", "setting": "4 hour period of action, vs control without active compound", "value": 56, "unit": "%"}, {"measurement": "Thromb size, mean value", "setting": "4 hours, 12 experiments, control 115 ± 12 (14 experiments)", "value": "51 ± 10", "unit": "µg"}]}
